Experimental data taken from patent publication US20100092402A1, “TREATMENT OF RESPIRATORY DISEASE” (Mucokinetica Ltd., priority 2007, published 2010).

Legend:
[1] = system: nasal epithelium; assay: Mucus host-defence responses during nasal perfusion; format: in vivo, human
Excerpt: Perfusion of the nasal epithelium with low chloride Ringer/HEPES buffer imposes a chemical gradient for chloride secretion, and therefore also provides a drive for fluid secretion.
Mucus host-defence episodes were scored 1 to 3 on the basis of the number of features and the magnitude of the responses observed. FIG. 10 reports the score of the episodes recorded, and indicates the time of their occurrence in the perfusion protocol.

[2] = system: prostasin; details: treatment for 24 h; cited from earlier work
[3] = system: cortical collecting duct of the rabbit kidney; details: Muto et al. 1993, cited from earlier work
[4] = system: cystic fibrosis transmembrane regulator (CFTR); assay: Short circuit current recording of HBE cells in Ussing chambers (forskolin ΔIsc); format: cell-based, human; details: for effect on forskolin ΔIsc compared to control: 90 min pre-treatment
Protocol: Differentiated HBE cells grown to confluence at an air-liquid interface for 15 to 29 days were used to study substances for ability to achieve long duration down regulation of the epithelial amiloride-sensitive sodium channel (ENaC).
Step 1: Treatment with substance. For each group of cells treated with a substance, 30 μl of 100 times final concentration of substance was added to the 3 ml basolateral culture medium, mixed and 150 μl of the resultant basolateral fluid was transferred to the apical surface for 5 min. For non-treatment control groups of basolateral fluid with no added substance was transferred to the apical surface. After 5 min. equilibration the excess apical fluid was then transferred back to the basolateral side of the culture well.
Step 2: Variable period of incubation with the substance. Dependent on the individual experiment the cells were returned to the 37° C. incubator for periods of 0 min. to 120 min.
Step 3: Period of substance washout with fresh culture medium. For experiments to study the duration of a substance response the HBE cells on Snapwell inserts were washed with fresh culture medium (no added substance) at 37° C. and placed in fresh 6-well plates containing 3 ml fresh culture medium (no added substance) on the basolateral side. […]
Step 5: Short circuit current (Isc) measurement. […] Silver/silver chloride electrodes (Costar Ltd., UK) were used to monitor Isc, which was recorded continuously throughout each experiment using AcqKnowledge III for MP100WSW data acquisition software (Biopac, Linton Instruments, UK). Transepithelial resistance (RT) was determined every minute by delivering a 5 mV pulse for 3 seconds and recording the change in ISS, over the 3 second period (ΔIsc). RT was calculated using the Ohm's law relationship RT=[V(5 mV)/ΔIsc].
At 37 min. […] The magnitude of the CFTR Isc response to forskolin was determined for each culture by measuring the difference between Isc immediately prior to addition of forskolin and at plateau at approximately 6 min. following addition of the agent (Forskolin ΔIsc)

SMILES: N=C(N)c1ccc2cc(OC(=O)c3ccc(N=C(N)N)cc3)ccc2c1 [6-amidino-2-napthyl 4-guanidinobenzoate]
- scores for episodes of mucus host-defence response (scored 1 to 3) ([1]; perfusion of 3.10^−6 M in low chloride Ringer/HEPES buffer): Highest scores
- mucus host-defence responses ([1]; perfusion with 3.10^−6 M in low chloride Ringer/HEPES buffer): stimulated episodes of mucus host-defence responses
- prostasin secretion into culture medium [2]: reduced prostasin secretion
- effect on the rabbit kidney model ([3]; 10^−5 M): without effect
- change in transepithelial voltage, as share of that achievable by 5.10^−6 M amiloride ([3]; perfused at 10^−4 M): 40%
- onset of change in transepithelial voltage ([3]; perfusion of 10^−4 M): ≤ 30 s
- effect on forskolin ΔIsc compared to control ([4]; 1 μM): no significant effect
- forskolin response, treatment vs control ([4]; 1 μM, pre-treatment time range 5 min to 60 min): No significant difference
- effect on forskolin ΔIsc compared to control ([4]; dose range 30 nM to 3 μM): without effect
